Holding throughout (type): cell-based
For assay [1], the system named is Human liver cancer cells HepG-2. Nature of the assay: Evaluation of lipid metabolism activity using SPR. The following applies: 25 μM and 50 μM fenofibrate; especially about 20 minutes after the reagent was added; FIG. 2. How it is done: Measurement of SPR signals and fluorescent microscopic observation were carried out using a device having a fluorescent microscope located above living cells, which cells are a target of the measurement, and an SPR sensor located under the living cells. […] An optical system of Kretschmann configuration was used as an SPR sensor. BK7 (with a refractive index of 1.51) was used as a prism. A semiconductor laser (with a wavelength of 670 nm, an output of 3 mW, and a beam diameter of 1 mm) was used as a light source. A silicon photodiode detector was used as a detector. The measurement was carried out in the atmosphere (with 20% O2 and 0.035% CO2), unless otherwise stated.
(§1) Human liver cancer cells HepG-2 were used as test cells. A liquid medium EMEM containing 100 μM nonessential amino acid, 50 units/mL penicillin, 50 μg/mL streptomycin, and 10% (v/v) FBS was prepared, at 37° C. with a CO2 concentration of 5%, to be used as a complete medium, and the cells were pre-cultured in the complete medium and then used in the testing. Fenofibrate (2-[4-(4-Chlorobenzoyl)phenoxy]-2-methylpropanoic acid isopropyl ester) was used as a lipid metabolism promoting agent. Lipid metabolism activity was evaluated at the time when 25 μM fenofibrate was added and at the time when 50 μM fenofibrate was added. […]
In general terms: SPR reads the build-up and loss of mass on a sensor chip optically.

The test system is the same in assay [2]. Nature of the assay: Monitoring mitochondrial polarized state using fluorescent reagent JC-1 (HepG-2). Particulars: fenofibrate medium; especially about 20 minutes after the reagent was added; FIG. 3. How it is done: The fluorescent microscopic observation was carried out with the use of Axioplan 2 (Carl Zeiss) as a microscope, a 75-W xenon lamp as a light source, and NTE/CCD Detector MicroMAX-512BFT (Princeton Instruments) as a detector. Images were obtained and analyzed with the use of fluorescence analysis software, MetaFluor Imaging System Ver. 4.65 (Universal Imaging).
as §1
Following pre-culture, the test cells were removed from the petri dish, and the concentration of the test cells in the complete medium was adjusted to 2×10^6 cell/mL. […] To detect fluorescence, a set of filters that transmitted 515-565 nm and a set of filters that transmitted 575-640 nm were used. […]

The subject of assay [3] is Human pancreas cancer cells MIA PaCa-2. Nature of the assay: Survival rate by counting the number of cells (trypan blue, standard method), combined use of agents. The following applies: 25 μM each agent; 48 hours after medium replacement; FIG. 12. How it is done:
The effect of combined use of plural agents was evaluated by a method including co-culturing a test agent with the cells, and counting the number of reduced cells by apoptosis. Human pancreas cancer cells MIA PaCa-2 were used as the test cells. A cell suspension of 5×10^4 cells/mL was prepared with the use of EMEM (Eagles' minimum essential medium) containing 10% (v/v) FBS, 50 units/mL penicillin, 50 μg/mL streptomycin, and 100 μM nonessential amino acid, and 5 mL of the cell suspension was poured into each 6-cm petri dish and pre-cultured at 37° C. with the CO2 concentration of 5%. After 24 hours, either a replacement with new 5 mL EMEM (DMSO used as the solvent of the phenol component was contained at the final concentration of 0.1% (v/v)) containing 25 μM quercetin, 25 μM trans-resveratrol, or both 25 μM quercetin and 25 μM trans-resveratrol in addition to the medium, or a replacement with 5 mL EMEM containing only 0.1% (v/v) DMSO as a control was carried out, and then culturing was carried out. Forty eight hours after the medium was replaced, trypan blue staining was carried out, and then the number of cells was counted with a hemocytometer. Comparison was carried out for the respective conditions, with 100 representing the number of cells in the control.

For assay [4] the test system is unchanged. Nature of the assay: Measurement of SPR angle, agents alone or in combination. Particulars: 25 μM each agent; 50 minutes after the administration; FIG. 13. The protocol:
SPR angles were measured with the above-described SPR sensor (tilting sensor) at the temperature of 37.0° C. Likewise in the measurement of the survival rate, a cell suspension of 2×10^6 cell/mL was prepared, and 100 μL of the cell suspension was dropped onto a gold plate for SPR measurement and cultured for 20 hours at 37° C. with the CO2 concentration of 5%. After 20 hours, the plate was placed on the prism of the SPR sensor, and on the plate was filled 5 mL EMEM. Then, measurement was started. Ten minutes after the measurement was started, either a replacement with new 5 mL EMEM (DMSO used as the solvent of the phenol component was contained at a final concentration of 0.1% (v/v)) containing 25 μM quercetin, 25 μM trans-resveratrol, or both 25 μM quercetin and 25 μM trans-resveratrol, or a replacement with 5 mL EMEM containing only 0.1% (v/v) DMSO as a control was carried out, and then the measurement of the changes in SPR angle was continued for another 50 minutes.

Regarding `CC(C)OC(=O)C(C)(C)Oc1ccc(C(=O)c2ccc(Cl)cc2)cc1` [fenofibrate, 2-[4-(4-Chlorobenzoyl)phenoxy]-2-methylpropanoic acid isopropyl ester], the “changes in SPR signals resulting from mitochondrial polarization due to activation of lipid metabolism” value in assay [1] was “changes (−) were observed in the SPR signals”. In addition, the “fluorescence intensity (JC-1) resulting from mitochondrial polarization due to activation of lipid metabolism” value in assay [2] is “increase in fluorescence intensity”.
With `O=c1c(O)c(-c2ccc(O)c(O)c2)oc2cc(O)cc(O)c12` [quercetin, Quercetin], the “survival rate (number of cells, control = 100)” value in assay [3] turned out to be 76.1%. In addition, the “change in SPR angle” value in assay [4] is listed as “approximately 0.05 degrees”.
As for `Oc1ccc(/C=C/c2cc(O)cc(O)c2)cc1` [trans-resveratrol], in assay [3], the “survival rate (number of cells, control = 100)” value is recorded as 56.2%. Moreover, the “change in SPR angle” value in assay [4] is “approximately 0.05 degrees”.

Source of the values: patent US20110003321A1, “Monitoring of Intercellular Mitochondorial Polarization” (Kyushu University National University Corporation, priority 2005, published 2011).
